The values below come from US20100016313A1, “INTESTINAL ALKALINE PHOSPHATASE MODULATORS AND USES THEREOF” (Burnham Institute for Medical Research, priority 2008, published 2010).

A value given as a limit tells only on which side of the number the result lay.

In one data set the target is T1, human IAP (Homo sapiens, UniProt P09923).
T1 construct: made in house; host or cells: COS-1 cells, transient expression from pCMV-Script; conditioned serum-free medium used as enzyme stock
T1 sequence (P09923 20-503 limits assumed): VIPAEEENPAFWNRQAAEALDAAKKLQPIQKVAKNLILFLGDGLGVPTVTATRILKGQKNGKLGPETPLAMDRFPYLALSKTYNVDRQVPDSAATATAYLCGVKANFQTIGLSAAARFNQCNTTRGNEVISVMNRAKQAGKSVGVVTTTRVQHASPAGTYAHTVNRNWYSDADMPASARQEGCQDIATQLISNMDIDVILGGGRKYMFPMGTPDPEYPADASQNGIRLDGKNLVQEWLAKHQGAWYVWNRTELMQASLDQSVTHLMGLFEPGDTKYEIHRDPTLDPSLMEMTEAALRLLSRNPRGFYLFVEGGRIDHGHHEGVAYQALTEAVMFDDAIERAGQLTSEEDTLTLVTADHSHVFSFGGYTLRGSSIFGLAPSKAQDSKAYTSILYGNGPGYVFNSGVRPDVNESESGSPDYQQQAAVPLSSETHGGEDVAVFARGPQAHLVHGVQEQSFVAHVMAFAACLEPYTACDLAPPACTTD
As to the kind of experiment: IAP assay using CDP-Star (chemiluminescent, dose response). Type of data set: biochemical. Particulars: IAP modulators, Tables A-H, positive = inhibitor; for n (Hill coefficient): negative = activator; for IC50: negative Hill coefficient = activator. The source says: An expression vector pCMV-Script containing cDNA for human IAP, TNAP, PLAP, GCAP, mouse TNAP, dIAP, EAP or gIAP in secreted form (FLAG-tagged) is transfected into COS-1 cells for transient expression using a standard electroporation method. The GPI anchoring site is replaced by a FLAG sequence to make the proteins secreted into the media as well as to test their kinetics in a form immobilized by anti-FLAG antibody (Narisawa, et al, 2007). Medium is changed to serum free medium Opti-MEM (Invitrogen) 24 h later, and media containing secreted proteins was collected 66 hr after electroporation. Conditioned medium filtered by a 2 μm cellulose acetate membrane is supplemented with 0.1% BSA, aliquotted and stored at −80° C.
Human IAP is produced on a large scale to be used in the primary high throughput screening. For a maximum of 200,000 wells including a blank and negative control in each plate, approximately 1600 ml of the recombinant human IAP working solution (8 μl/well×200,000) is used. The working solution is a 1:80 dilution of the stock solution that has AP activity showing ΔOD405 (velocity) ˜300 in 5 min pNPP calorimetric assay. Therefore a minimum of 20 ml of the stock solution (1600÷80) is needed. An enzyme stock is prepared from ten 15 cm φ plates of COS-1 cells using 100 μg plasmid DNA [ten plates×(10 μg DNA/1×10^7 cells per 15 cm φ plate)].
Compound aliquots (4 μL at […] in 10% DMSO) are added to 8 μL of human IAP working solution of a the human IAP stock solution diluted 1:80 in assay buffer (250 mM DEA, pH 9.8, −2.5 mM MgCl2, −0.05 μM ZnCl2). The solution of substrate CDP-Star, disodium 2-chloro-5-(4-methoxyspiro{1,2-dioxetane-3,2′(5′-chloro)-tricyclo[3.3.1.1]3,7 decan}-4-yl)-1-phenyl phosphate (New England Biolabs), (8 μL of 125 μM in water) is added to each well. […] Dispensing of human IAP working solution and CDP-Star is processed using a WellMate bulk dispenser (Matrix). Plates (white 384-well small volume Greiner 784075) are incubated at room temperature for 30 min, and the luminescence signal is measured using a PerkinElmer EnVision multi-mode plate reader. L-Phenylalanine (1 mM final concentration) and 2% DMSO is utilized as an inhibition control and blank, respectively. Data analysis is processed using CBIS software (ChemInnovations, Inc).
The compound is diluted ([…] to 0.03 mM) and incubated with the human IAP enzyme for 30 min prior to addition of substrate. At the same time, human TNAP, human PLAP, human GCAP, mouse TNAP, mouse dIAP, mouse EAP and mouse gIAP is tested to determine enzyme specificity.

Data set [1] in a line: Kinetic parameters of recombinant mouse dIAP, gIAP and EAP using p-NPP as substrate. Type of data set: biochemical. The source says: The epithelium of the mouse small intestine expresses two intestine specific AP genes, Akp3 and Akp6, and low levels of Akp5, which is not intestine specific (Narisawa, et al, 2007). AP proteins encoded by Akp3, Akp5 and Akp6 were designated duodenal IAP or dIAP, embryonic AP or EAP and global IAP or gIAP, respectively.

[2] abbreviates: p-NPP as substrate, pH 9.8, means ± SD.

One may read the IC50 as the midpoint of a concentration-inhibition curve. High values mean weaker potency in that assay, low ones greater potency in that assay. `Cn1ccnc1Cc1ncnc(Nc2ccccc2)n1` [Compound H3, 4-[(1-methyl-4H-imidazol-2-yl)methyl]-N-phenyl-1,3,5-triazin-2-amine]: at human IAP, the “n (Hill coefficient)” value is listed as −1.32 and the IC50 came out at 30.5 µM. `COC(=O)c1cc(-c2ccccc2)n[nH]1` [Compound A8, methyl 5-phenyl-1H-pyrazole-3-carboxylate] gave an IC50 at human IAP above 100 µM. As for `O=C1C2CC=CCC2C(=O)N1c1nc(-c2ccco2)n[nH]1` (stereo not shown) [Compound F6, 2-[3-(furan-2-yl)-1H-1,2,4-triazol-5-yl]-3a,4,7,7a-tetrahydro-1H-isoindole-1,3(2H)-dione], at human IAP, the “n (Hill coefficient)” value worked out at 0.894 and the IC50 is 0.411 µM.

On human IAP, `O=c1cc(CCO)c2c(-c3ccccc3)n[nH]c2o1` [Compound E7, 4-(2-hydroxyethyl)-3-phenylpyrano[2,3-c]pyrazol-6(1H)-one] showed an IC50 above 100 µM. On human IAP, `COC(=O)c1cc(-c2ccc(OC)cc2)[nH]n1` [Compound B14, methyl 3-(4-methoxyphenyl)-1H-pyrazole-5-carboxylate] had an IC50 above 100 µM.

On to `O=C1C2CCCCC2C(=O)N1c1ncn[nH]1` (stereo not shown) [Compound F1, 2-(1H-1,2,4-triazol-5-yl)-hexahydro-1H-isoindole-1,3(2H)-dione], for which, on human IAP, the “n (Hill coefficient)” value is recorded as −2.03 and the IC50 was found to be 13.8 µM. On human IAP, `COc1ccc(OC)c(S(=O)(=O)Nc2cnc3ccccc3c2)c1` [Compound G2, 2,5-dimethoxy-N-(quinolin-3-yl)benzenesulfonamide] came in with an IC50 above 100 µM. With `CC(=O)Nc1nnc(SCc2ccc(Br)cc2)[nH]1` [Compound H2, N-[5-(4-bromobenzylthio)-4H-1,2,4-triazol-3-yl)acetamide], at human IAP, the “n (Hill coefficient)” value is on record as −0.563 and the IC50 was 86.4 µM. `O=C1C2CCCCC2C(=O)N1c1nc(CCc2ccccc2)n[nH]1` (stereo not shown) [Compound F3, 2-(3-phenethyl-1H-1,2,4-triazol-5-yl)-hexahydro-1H-isoindole-1,3(2H)-dione]: at human IAP, the “n (Hill coefficient)” value was 0.694 and the IC50 turned out to be 1.75 µM. For the molecule `COc1cccc(-c2cc(C(=O)O)[nH]n2)c1` [Compound B5, 3-(3-methoxyphenyl)-1H-pyrazole-5-carboxylic acid], the IC50 on human IAP was above 100 µM. Same read-out and setting: the figure for `COC(=O)c1cc(-c2ccc([N+](=O)[O-])cc2)[nH]n1` [Compound A10, methyl 5-(4-nitrophenyl)-1H-pyrazole-3-carboxylate] is above 100 µM; for `CCOc1ccc(-c2cc(C(=O)O)[nH]n2)cc1` [Compound B9, 3-(4-ethoxyphenyl)-1H-pyrazole-5-carboxylic acid] it is above 100 µM. `O=C(O)c1cc(-c2ccccc2O)n[nH]1` [Compound B2, 3-(2-hydroxyphenyl)-1H-pyrazole-5-carboxylic acid]: at human IAP, the “n (Hill coefficient)” value is given as −1.92 and 7.85 µM corresponded to half-maximal inhibition (IC50). On human IAP, `COc1ccc(-c2cc(C(=O)O)n[nH]2)cc1` [Compound A3, 5-(4-methoxyphenyl)-1H-pyrazole-3-carboxylic acid] showed a concentration for half-maximal inhibition (IC50) above 100 µM. The same measure, in the same setting: the figure for `COc1cc(C)c(Cl)cc1S(=O)(=O)Nc1cccnc1` [Compound G4, 2-methoxy-4-methyl-5-chloro-N-(pyridin-3-yl)benzenesulfonamide] is above 100 µM. The molecule `COC(=O)c1cc(-c2ccc(C)cc2)[nH]n1` [Compound A9, methyl 5-(4-methylphenyl)-1H-pyrazole-3-carboxylate] gave an IC50 on human IAP above 100 µM. Still for that read-out and setting: the value for `CCc1ccc(-c2cc(C(=O)O)[nH]n2)cc1` [Compound B6, 3-(4-ethylphenyl)-1H-pyrazole-5-carboxylic acid] was above 100 µM. The same measure, in the same setting: the figure for `COC(=O)c1cc(-c2ccc3ccccc3c2)[nH]n1` [Compound C1, methyl 3-(nahthylen-2-yl)-1H-pyrazole-5-carboxylate] is above 100 µM; for `O=C(c1[nH]nc2c1COc1ccccc1-2)N1CCCC1` [Compound E2, (2,4-dihydrochromeno[3,4-c]pyrazol-3-yl)(pyrrolidin-1-yl)methanone] it is above 100 µM.

Take `COC(=O)c1cc(-c2ccc(Cl)cc2Cl)n[nH]1` [Compound B12, methyl 3-(2,4-dichlorophenyl)-1H-pyrazole-5-carboxylate]: on human IAP, the “n (Hill coefficient)” value is −1.3 and the midpoint of inhibition, the IC50, lay at 9.32 µM. For `COC(=O)c1cc(-c2ccc(C)cc2C)n[nH]1` [Compound B13, methyl 3-(2,4-dimethylphenyl)-1H-pyrazole-5-carboxylate] the same measures were −3.035 and 66.1 µM.

In turn, `CCOC(=O)c1[nH]nc2c1COc1ccccc1-2` [Compound E3, ethyl 2,4-dihydrochromeno[3,4-c]pyrazole-3-carboxylate] came in with an IC50 at human IAP above 100 µM. Still for that read-out and setting: the figure for `Cc1ccc(-c2cc(C(=O)O)[nH]n2)cc1C` [Compound B8, 3-(3,4-dimethylphenyl)-1H-pyrazole-5-carboxylic acid] is above 100 µM. For the molecule `O=C(O)c1cc(-c2ccc3c(c2)OCCO3)n[nH]1` [Compound B11, 3-(2,3-dihydrobenzo[b][1,4]dioxyin-6-yl)-1H-pyrazole-5-carboxylic acid], the IC50 against human IAP is above 100 µM.

For `Cc1ccc(-c2cc(C(=O)O)[nH]n2)cc1` [Compound A4, 5-(4-methylphenyl)-1H-pyrazole-3-carboxylic acid], the IC50 at human IAP is above 100 µM. Still for that read-out and setting: the figure for `Cc1ccc(-c2cc(C(=O)O)[nH]n2)c(C)c1` [Compound B7, 3-(2,4-dimethylphenyl)-1H-pyrazole-5-carboxylic acid] is above 100 µM; for `CCOC(=O)c1cc(-c2ccc3c(c2)OCCO3)n[nH]1` [Compound B16, ethyl 3-(2,3-dihydrobenzo[b][1,4]dioxyin-6-yl)-1H-pyrazole-5-carboxylate] it is above 100 µM. Turning to `O=C1C2CC=CCC2C(=O)N1c1nc(-c2cccnc2)n[nH]1` (stereo not shown) [Compound F7, 2-[3-(pyridin-3-yl)-1H-1,2,4-triazol-5-yl)-3a,4,7,7a-tetrahydro-1H-isoindole-1,3(2H)-dione], at human IAP, the “n (Hill coefficient)” value is reported as 0.927 and the IC50 was 1.77 µM.

B1: dIAP: recombinant mouse duodenal intestinal alkaline phosphatase encoded by Akp3 (protein, UniProt P24822 20-528, looked up)
Intestinal-type alkaline …: VIPVEEENPAFWNKKAAEALDAAKKLQPIQTSAKNLIIFLGDGMGVPTVTATRILKGQLEGHLGPETPLAMDRFPYMALSKTYSVDRQVPDSASTATAYLCGVKTNYKTIGLSAAARFDQCNTTFGNEVFSVMYRAKKAGKSVGVVTTTRVQHASPSGTYVHTVNRNWYGDADMPASALREGCKDIATQLISNMDINVILGGGRKYMFPAGTPDPEYPNDANETGTRLDGRNLVQEWLSKHQGSQYVWNREQLIQKAQDPSVTYLMGLFEPVDTKFDIQRDPLMDPSLKDMTETAVKVLSRNPKGFYLFVEGGRIDRGHHLGTAYLALTEAVMFDLAIERASQLTSERDTLTIVTADHSHVFSFGGYTLRGTSIFGLAPLNALDGKPYTSILYGNGPGYVGTGERPNVTAAESSGSSYRRQAAVPVKSETHGGEDVAIFARGPQAHLVHGVQEQNYIAHVMASAGCLEPYTDCGLAPPADESQTTTTTRQTTITTTTTTTTTTTTPVHN
In general, Km refers to the concentration of substrate that gives half-maximal velocity. In general, kcat refers to the maximal rate divided by the concentration of active sites. On to B1, for which the Km in data set [1] (setting [2]) is 1100 ± 340 µM; in data set [1] (pNPP assay, recombinant enzyme, repeated in text) it was 1100 ± 340 µM. In data set [1] (setting [2]), the kcat is 339 ± 13 s⁻¹.
